Values joined by “and” are separate entries in the source; they are usually repeats but may differ in a detail not shown here. Identical values can stand only once. One block for each compound: values may come before it. Active and inactive are the calls of the source.
What was measured:
[1] = target: 1-acylglycerol-3-phosphate O-acyltransferase ABHD5/Perilipin-5 (Homo sapiens, UniProt Q00G26+Q8WTS1); assay: Luminescence-based biochemical high throughput dose response assay for inhibitors of the interaction of the lipase co-activator protein, abhydrolase domain containing 5 (ABHD5) with perilipin-5 (MLDP; PLIN5) (2K validation set). [Related pubchem assays (depositor defined):AID493035, AID493241]
Perilipin-1/ABHD5 = Perilipin-1/ABHD5 (Homo sapiens, UniProt O60240+Q8WTS1); assay: Luminescence-based biochemical high throughput dose response assay for inhibitors of the interaction of the lipase co-activator protein, abhydrolase domain containing 5 (ABHD5) with perilipin-1 (PLIN1) (2K validation set). [Related pubchem assays (depositor defined):AID493027, AID493057]
[2] = target: Eukaryotic translation initiation factor 4E (Mus musculus, UniProt P63073); assay: blockers of eIF4G binding by eIF4E – biochemical, TR-FRET, dose response (AID 855); format: functional;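 further: potency for disrupting eIF4E binding to eIF4GI seen as loss of FRET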
[3] = target: T1, Short transient receptor potential channel 4 (Mus musculus, UniProt Q9QUQ5); assay: block of DAMGO-driven TRPC4 calcium entry – cell-based, HEK293 TRPC4/mu-opioid, Fluo-4 calcium, dose response (AID 434942); format: functional;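 further: potency of inhibitors blocking the TRPC4 calcium response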
T1 sequence (Q9QUQ5 whole entry): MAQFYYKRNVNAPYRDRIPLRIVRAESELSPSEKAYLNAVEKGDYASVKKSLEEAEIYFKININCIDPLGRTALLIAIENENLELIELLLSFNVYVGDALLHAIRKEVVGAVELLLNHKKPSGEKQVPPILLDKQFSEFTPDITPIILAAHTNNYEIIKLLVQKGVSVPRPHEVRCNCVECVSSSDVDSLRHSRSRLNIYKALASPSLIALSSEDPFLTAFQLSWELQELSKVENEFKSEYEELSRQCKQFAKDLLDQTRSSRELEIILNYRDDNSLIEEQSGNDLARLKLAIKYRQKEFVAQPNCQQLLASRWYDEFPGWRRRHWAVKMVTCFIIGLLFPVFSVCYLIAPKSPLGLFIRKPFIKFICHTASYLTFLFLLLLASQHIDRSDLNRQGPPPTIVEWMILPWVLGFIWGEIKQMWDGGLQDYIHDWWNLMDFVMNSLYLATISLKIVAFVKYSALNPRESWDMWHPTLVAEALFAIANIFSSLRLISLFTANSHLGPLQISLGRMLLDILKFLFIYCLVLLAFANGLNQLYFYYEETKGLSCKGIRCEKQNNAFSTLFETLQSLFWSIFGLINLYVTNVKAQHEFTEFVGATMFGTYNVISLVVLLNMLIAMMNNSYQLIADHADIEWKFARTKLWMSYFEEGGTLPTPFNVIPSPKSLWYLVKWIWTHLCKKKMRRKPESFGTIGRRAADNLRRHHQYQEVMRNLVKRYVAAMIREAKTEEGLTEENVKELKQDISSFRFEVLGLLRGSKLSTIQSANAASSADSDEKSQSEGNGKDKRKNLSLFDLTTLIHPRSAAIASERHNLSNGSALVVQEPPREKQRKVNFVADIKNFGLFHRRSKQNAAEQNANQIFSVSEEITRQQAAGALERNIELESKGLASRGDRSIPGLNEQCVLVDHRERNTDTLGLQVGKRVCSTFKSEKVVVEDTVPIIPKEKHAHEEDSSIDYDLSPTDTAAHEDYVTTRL

[4] = target: T2, Tyrosine-protein phosphatase non-receptor type 7 (Homo sapiens, UniProt P35236); assay: redox-active compounds inhibiting HePTP phosphatase – biochemical, fluorescence, mechanism study (AID 2068); format: functional
T2 sequence (P35236 whole entry): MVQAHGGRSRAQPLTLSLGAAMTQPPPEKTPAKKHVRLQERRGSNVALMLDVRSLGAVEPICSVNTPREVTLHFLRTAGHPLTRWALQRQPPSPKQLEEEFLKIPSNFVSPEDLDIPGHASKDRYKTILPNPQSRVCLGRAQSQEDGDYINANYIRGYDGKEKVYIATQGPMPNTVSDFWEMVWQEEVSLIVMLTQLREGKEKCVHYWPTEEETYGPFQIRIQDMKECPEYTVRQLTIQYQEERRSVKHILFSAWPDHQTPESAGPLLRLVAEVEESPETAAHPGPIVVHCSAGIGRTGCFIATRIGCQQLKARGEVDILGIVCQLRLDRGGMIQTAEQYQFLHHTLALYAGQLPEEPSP

[5] = target: Glyceraldehyde-3-phosphate dehydrogenase (Homo sapiens, UniProt P04406)
[6] = target: Alkaline phosphatase, placental type (Homo sapiens, UniProt P05187); assay: human placental alkaline phosphatase inhibition – biochemical, luminescence, confirmation (AID 1512); format: functional
[7] = target: T3, Alkaline phosphatase, tissue-nonspecific isozyme (Homo sapiens, UniProt P05186); assay: potency against alkaline phosphatase TNAP – biochemical, luminescent, dose response, SAR follow-up (AID 1056)
T3 sequence (P05186 whole entry): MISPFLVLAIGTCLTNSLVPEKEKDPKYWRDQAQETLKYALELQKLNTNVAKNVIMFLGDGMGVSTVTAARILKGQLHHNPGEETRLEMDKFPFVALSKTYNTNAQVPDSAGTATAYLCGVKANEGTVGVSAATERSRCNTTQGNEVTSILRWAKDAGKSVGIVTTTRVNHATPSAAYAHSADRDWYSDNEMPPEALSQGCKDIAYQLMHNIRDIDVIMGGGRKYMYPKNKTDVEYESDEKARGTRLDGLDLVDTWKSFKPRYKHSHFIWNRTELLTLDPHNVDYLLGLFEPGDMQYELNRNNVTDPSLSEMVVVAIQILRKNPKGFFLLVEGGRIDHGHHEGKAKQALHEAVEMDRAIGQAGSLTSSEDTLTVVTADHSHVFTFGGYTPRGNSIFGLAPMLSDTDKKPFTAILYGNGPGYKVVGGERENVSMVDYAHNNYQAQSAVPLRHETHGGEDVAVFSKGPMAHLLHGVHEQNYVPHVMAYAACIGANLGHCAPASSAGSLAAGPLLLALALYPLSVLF

[8] = target: T4, Voltage-gated N-type calcium channel alpha-1B subunit/Amyloid beta A4 precursor protein-binding family A member 1 (Homo sapiens, UniProt Q00975+Q02410); format: protein assay
[9] = target: T4, Voltage-gated N-type calcium channel alpha-1B subunit/Amyloid beta A4 precursor protein-binding family A member 1; format: protein assay; remark: listed apart in the source
[10] = target: Induced myeloid leukemia cell differentiation protein Mcl-1 (Homo sapiens, UniProt Q07820); format: functional
HEK293 [11] = assay: cells; conditions: Homo sapiens
HEK293 [12] = assay: cells; conditions: Homo sapiens; remark: listed apart in the source
[13] = target: T5, Sphingosine 1-phosphate receptor 4 (Homo sapiens, UniProt O95977); assay: Late-stage fluorescence dose response cell-based assay to identify agonists of the Sphingosine 1-Phosphate Receptor 4 (S1P4): purchased compounds EC50. [Related pubchem assays (depositor defined):AID1509, AID1523, AID1563, AID1686, AID1701, AID1801]; format: functional
T5 sequence (O95977 whole entry): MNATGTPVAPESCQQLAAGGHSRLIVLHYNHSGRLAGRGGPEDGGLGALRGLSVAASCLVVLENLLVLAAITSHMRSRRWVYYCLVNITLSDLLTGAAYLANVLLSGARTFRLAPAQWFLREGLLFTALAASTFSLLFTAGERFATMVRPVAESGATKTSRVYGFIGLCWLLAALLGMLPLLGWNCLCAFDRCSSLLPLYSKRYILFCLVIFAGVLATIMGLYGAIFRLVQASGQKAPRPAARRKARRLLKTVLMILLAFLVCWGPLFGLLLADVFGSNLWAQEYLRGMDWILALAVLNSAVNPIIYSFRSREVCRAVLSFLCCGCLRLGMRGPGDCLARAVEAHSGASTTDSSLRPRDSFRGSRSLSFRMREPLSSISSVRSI

Bcl-2-related protein A1 = target: T6, Bcl-2-related protein A1 (Mus musculus, UniProt Q07440); format: functional;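 further: confirmatory dose–response counterscreen on Bfl-1, used to check hits from a UBC13 polyubiquitin inhibitor campaign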
T6 sequence (Q07440 whole entry): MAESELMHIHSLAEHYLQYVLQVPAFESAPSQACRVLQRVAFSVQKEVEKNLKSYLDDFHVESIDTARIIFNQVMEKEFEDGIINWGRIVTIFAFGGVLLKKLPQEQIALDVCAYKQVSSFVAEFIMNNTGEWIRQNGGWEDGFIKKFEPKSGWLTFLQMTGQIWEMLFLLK

[14] = target: T7, Ubiquitin-conjugating enzyme E2 N (Homo sapiens, UniProt P61088); format: functional
T7 sequence (P61088 whole entry): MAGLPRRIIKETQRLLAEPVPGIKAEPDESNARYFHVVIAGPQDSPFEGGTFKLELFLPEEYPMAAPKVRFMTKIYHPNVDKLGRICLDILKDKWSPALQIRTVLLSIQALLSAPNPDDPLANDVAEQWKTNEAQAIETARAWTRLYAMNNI

[15] = target: T7, Ubiquitin-conjugating enzyme E2 N; format: functional; remark: listed apart in the source
[16] = target: T8, Type-1 angiotensin II receptor (Homo sapiens, UniProt P30556); assay: agonist activity at AGTR1 – cell-based, uHTS hits, selectivity assay for APJ receptor agonist project, dose response (AID 488865); format: functional;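 further: beta-arrestin recruitment to AT1 measured by enzyme fragment complementation luminescence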
T8 sequence (P30556 whole entry): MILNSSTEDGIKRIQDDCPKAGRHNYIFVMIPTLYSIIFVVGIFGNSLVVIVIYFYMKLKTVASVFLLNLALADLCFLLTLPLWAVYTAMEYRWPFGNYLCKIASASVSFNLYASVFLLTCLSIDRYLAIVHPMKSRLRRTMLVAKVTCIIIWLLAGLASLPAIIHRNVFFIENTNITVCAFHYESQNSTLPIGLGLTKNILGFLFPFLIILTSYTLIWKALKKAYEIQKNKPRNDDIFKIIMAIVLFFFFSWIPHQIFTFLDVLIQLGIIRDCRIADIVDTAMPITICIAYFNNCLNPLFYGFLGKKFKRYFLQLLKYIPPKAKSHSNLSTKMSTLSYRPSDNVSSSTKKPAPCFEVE

[17] = target: Delta-type opioid receptor (Homo sapiens, UniProt P41143); assay: Counterscreen for agonists of heterodimerization of the mu 1 (OPRM1) and delta 1 (OPRD1) opioid receptors: Luminescence-based cell-based high throughput dose response assay to identify agonists of OPRD1 homodimerization. [Related pubchem assays (depositor defined):AID504326, AID504355, AID504692, AID504904, AID504905]; format: functional
Mu-type opioid receptor = Mu-type opioid receptor (Homo sapiens, UniProt P35372); assay: Counterscreen for agonists of heterodimerization of the mu 1 (OPRM1) and delta 1 (OPRD1) opioid receptors: Luminescence-based cell-based high throughput dose response assay to identify agonists of OPRM1 homodimerization.; format: functional;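 further: U2OS cells expressing OPRM1 and beta-arrestin as split beta-galactosidase partners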
[18] = target: 5-hydroxytryptamine receptor 5A (Homo sapiens, UniProt P47898); assay: Counterscreen for agonists of OPRM1-OPRD1 heterodimerization: luminescence-based cell-based high throughput dose response assay to identify agonists of 5-hydroxytryptamine (serotonin) 5A receptor (HTR5A). [Related pubchem assays (depositor defined):AID504326, AID504355, AID504692, AID504904, AID504905]; format: functional
[19] = Fluorescence-based cell-based high throughput dose response assay for inhibitors of the interaction of nucleotide-binding oligomerization domain containing 2 (NOD2) and the receptor-interacting serine-threonine kinase 2 (RIPK2).; format: functional; conditions: Homo sapiens

Chain of Perilipin-1/ABHD5 (Q8WTS1 whole entry, the tested form may be a part): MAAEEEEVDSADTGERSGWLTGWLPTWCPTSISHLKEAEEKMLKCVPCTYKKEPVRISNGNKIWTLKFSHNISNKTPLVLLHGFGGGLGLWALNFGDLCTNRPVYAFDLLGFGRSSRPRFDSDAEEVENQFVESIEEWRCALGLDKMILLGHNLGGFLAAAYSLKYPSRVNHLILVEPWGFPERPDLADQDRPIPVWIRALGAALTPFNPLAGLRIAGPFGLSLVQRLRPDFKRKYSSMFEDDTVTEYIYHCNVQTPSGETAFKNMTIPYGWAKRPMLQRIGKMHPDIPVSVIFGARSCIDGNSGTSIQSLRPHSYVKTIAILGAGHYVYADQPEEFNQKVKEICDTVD
Chain of Perilipin-1/ABHD5 (O60240 whole entry, the tested form may be a part): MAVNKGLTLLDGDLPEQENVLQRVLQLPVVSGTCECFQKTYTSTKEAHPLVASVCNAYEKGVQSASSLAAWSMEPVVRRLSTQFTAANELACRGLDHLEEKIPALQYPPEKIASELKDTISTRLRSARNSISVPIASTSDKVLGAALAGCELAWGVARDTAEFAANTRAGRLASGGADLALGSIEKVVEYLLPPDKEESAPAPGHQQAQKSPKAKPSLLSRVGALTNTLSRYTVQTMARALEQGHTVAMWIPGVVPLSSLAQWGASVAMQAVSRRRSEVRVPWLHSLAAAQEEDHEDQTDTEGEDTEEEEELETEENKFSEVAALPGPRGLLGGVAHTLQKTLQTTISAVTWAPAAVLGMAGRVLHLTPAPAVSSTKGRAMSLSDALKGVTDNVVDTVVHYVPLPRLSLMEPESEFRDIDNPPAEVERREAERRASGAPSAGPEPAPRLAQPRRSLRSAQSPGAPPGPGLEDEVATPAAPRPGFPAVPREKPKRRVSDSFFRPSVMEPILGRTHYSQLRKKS
Chain of 1-acylglycerol-3-phosphate O-acyltransferase ABHD5/Perilipin-5 (Q00G26 whole entry, the tested form may be a part): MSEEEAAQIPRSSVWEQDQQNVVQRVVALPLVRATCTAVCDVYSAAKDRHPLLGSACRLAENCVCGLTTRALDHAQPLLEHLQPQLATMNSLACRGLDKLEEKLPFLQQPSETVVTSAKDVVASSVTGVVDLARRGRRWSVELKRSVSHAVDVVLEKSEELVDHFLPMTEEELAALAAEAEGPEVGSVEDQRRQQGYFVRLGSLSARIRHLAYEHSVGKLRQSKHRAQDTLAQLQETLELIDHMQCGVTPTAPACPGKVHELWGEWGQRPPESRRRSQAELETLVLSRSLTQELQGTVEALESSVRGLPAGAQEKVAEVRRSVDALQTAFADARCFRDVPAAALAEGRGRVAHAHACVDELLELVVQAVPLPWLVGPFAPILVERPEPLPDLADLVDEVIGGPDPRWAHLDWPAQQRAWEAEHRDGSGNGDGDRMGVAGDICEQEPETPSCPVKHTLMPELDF
Chain of 1-acylglycerol-3-phosphate O-acyltransferase ABHD5/Perilipin-5 (Q8WTS1 whole entry, the tested form may be a part): as the sequence (Q8WTS1 whole entry, the tested form may be a part) above
Chain of Alkaline phosphatase, placental type (P05187 whole entry): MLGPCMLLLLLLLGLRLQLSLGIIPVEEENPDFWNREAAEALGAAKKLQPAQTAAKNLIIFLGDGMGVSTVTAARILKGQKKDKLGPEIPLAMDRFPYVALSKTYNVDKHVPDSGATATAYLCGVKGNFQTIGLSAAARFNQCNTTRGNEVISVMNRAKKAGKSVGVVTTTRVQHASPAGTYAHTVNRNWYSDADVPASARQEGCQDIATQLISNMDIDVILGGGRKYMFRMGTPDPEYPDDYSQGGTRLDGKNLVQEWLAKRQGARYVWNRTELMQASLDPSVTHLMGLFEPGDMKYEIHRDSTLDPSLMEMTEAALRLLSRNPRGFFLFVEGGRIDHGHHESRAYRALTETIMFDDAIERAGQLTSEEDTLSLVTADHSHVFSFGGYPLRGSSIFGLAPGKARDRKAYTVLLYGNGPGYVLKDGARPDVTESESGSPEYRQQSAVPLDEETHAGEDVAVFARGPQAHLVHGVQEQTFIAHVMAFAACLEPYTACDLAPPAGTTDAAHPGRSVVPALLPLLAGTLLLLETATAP
T4 sequence (Q00975 whole entry): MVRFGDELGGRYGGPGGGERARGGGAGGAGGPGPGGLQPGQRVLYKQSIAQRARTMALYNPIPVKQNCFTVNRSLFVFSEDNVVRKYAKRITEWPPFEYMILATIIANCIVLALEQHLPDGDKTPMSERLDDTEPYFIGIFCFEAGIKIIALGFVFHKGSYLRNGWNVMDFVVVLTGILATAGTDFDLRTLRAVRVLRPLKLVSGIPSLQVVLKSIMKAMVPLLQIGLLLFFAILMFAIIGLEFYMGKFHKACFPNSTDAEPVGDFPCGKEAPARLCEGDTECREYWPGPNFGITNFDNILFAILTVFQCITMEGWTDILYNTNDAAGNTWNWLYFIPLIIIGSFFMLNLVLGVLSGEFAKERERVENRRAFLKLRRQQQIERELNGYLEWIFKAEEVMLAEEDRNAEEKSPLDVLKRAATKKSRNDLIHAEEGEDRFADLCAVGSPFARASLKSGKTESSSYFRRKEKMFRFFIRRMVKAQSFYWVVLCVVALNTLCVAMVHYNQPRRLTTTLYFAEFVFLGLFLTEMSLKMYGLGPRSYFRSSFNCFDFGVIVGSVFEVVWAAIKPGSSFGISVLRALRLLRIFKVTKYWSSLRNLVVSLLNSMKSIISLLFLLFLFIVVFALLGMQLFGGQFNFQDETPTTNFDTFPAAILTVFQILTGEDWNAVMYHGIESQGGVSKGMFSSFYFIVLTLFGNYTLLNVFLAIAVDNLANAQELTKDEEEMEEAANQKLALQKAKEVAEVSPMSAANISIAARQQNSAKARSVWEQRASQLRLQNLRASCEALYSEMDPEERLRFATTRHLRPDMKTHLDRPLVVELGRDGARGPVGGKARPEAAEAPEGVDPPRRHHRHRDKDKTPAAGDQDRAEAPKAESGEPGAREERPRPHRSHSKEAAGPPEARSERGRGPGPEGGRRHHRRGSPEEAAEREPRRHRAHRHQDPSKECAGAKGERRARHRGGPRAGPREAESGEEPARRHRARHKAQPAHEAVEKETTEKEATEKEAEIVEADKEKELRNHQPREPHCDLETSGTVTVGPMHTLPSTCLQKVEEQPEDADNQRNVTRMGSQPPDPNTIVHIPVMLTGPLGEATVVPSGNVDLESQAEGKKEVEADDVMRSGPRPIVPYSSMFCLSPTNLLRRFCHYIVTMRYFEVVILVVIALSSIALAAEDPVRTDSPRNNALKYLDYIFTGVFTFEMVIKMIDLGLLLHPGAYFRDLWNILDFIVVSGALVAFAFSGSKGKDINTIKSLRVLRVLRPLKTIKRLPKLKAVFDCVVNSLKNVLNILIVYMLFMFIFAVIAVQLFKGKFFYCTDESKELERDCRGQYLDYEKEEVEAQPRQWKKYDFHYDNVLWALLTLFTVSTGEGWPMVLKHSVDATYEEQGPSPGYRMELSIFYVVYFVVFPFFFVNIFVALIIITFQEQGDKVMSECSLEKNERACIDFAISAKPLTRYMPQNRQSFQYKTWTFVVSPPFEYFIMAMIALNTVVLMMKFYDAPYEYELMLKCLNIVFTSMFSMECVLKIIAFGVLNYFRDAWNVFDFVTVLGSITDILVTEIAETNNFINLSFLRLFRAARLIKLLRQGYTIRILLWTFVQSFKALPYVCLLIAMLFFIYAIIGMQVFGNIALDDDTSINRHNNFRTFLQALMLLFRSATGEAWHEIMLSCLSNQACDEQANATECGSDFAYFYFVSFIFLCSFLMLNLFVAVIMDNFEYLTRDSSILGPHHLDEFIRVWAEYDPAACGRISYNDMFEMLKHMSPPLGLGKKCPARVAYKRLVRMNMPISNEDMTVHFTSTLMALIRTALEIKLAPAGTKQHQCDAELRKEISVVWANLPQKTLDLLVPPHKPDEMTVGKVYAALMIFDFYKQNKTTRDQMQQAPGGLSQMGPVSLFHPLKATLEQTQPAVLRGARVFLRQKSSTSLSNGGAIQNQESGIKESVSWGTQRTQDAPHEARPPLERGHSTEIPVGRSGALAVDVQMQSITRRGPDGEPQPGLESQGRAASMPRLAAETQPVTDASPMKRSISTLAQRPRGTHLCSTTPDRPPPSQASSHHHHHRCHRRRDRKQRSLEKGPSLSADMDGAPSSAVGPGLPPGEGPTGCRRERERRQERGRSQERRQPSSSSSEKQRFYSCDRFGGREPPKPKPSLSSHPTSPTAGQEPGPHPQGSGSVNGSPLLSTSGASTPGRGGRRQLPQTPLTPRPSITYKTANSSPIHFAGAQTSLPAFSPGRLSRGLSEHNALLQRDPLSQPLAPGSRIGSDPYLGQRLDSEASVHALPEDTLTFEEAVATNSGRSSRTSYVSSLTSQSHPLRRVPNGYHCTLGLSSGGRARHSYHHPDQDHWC
T4 sequence (Q02410 whole entry): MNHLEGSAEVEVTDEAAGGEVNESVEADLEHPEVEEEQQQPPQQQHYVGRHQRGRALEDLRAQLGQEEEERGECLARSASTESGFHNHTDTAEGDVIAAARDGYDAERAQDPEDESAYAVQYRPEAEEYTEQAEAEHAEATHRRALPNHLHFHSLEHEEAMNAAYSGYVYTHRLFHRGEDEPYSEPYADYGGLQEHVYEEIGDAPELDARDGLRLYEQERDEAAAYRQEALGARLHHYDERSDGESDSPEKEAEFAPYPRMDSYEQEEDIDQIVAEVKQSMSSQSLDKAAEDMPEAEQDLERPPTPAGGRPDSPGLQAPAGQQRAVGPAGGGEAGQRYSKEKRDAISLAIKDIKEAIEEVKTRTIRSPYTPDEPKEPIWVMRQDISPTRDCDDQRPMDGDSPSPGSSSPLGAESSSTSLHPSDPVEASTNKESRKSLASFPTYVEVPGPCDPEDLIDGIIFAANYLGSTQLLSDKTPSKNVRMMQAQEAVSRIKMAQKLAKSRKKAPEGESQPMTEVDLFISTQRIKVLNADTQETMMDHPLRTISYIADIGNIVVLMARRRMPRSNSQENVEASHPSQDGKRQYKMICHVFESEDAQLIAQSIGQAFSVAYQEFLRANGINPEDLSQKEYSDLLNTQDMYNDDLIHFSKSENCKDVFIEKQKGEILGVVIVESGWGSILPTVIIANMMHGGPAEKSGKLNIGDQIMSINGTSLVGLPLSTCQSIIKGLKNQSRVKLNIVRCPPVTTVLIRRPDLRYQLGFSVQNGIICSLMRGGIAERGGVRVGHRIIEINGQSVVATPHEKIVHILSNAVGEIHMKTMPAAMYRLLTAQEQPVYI

IC50 [1]: 20.6 µM (inactive)
IC50 (Perilipin-1/ABHD5): 20.8 µM (inactive)
IC50 [2]: 50 µM (inactive)
SMILES: CC1(C)c2ccccc2N2CC(=O)NC21/C=C/c1ccco1 (stereo not drawn)

IC50 [4]: 12.2 µM (active)
SMILES: COc1ccc(NC(=O)Nc2ccc3nc(-c4ccco4)c(-c4ccco4)nc3c2)cc1

IC50 [5]: > 100 µM (not active)
IC50 [6]: > 100 µM (inactive)
IC50 [7]: > 100 µM (inactive)
SMILES: Clc1ccccc1-c1nnc2c3cnn(-c4ccccc4)c3ncn12

IC50 [1]: 15 µM (inactive)
IC50 (Perilipin-1/ABHD5): 15.3 µM (inactive)
SMILES: CCOc1cc2c3c(c1)C(C)=CC(C)(C)N3C(=O)C2=O

Second part, the compound before the results:

SMILES: Cc1ccc(O)c(CNc2nc3ccccc3[nH]2)c1
EC50 [3]: 1.5 µM (active)

SMILES: CCOC(=O)c1ccc(N=Nc2c(O)nc(O)c(C#N)c2C)cc1
IC50 [8]: > 56.8 µM (not active)
IC50 [9]: > 50 µM (inactive)
IC50 [10]: 3.18 µM (active)

SMILES: Cn1ccnc1SCC(=O)c1ccc(O)c(O)c1
IC50 [6]: 8.56 µM (active)
IC50 [7]: 75.7 µM (active)

SMILES: O=C(NCCN1CCOCC1)c1cc2sccc2n1Cc1ccc(F)cc1
EC50 [3]: 5.96 µM (active)
EC50 (HEK293 [11]): > 59.7 µM (inactive)
EC50 (HEK293 [12]): > 59.7 µM (inactive)

SMILES: Cc1ccc(OCC(=O)NCCc2ccc(Cl)cc2Cl)c([N+](=O)[O-])n1
EC50 [13]: > 50 µM (inactive)

SMILES: CCc1ccc2nc(N(CCCN(C)C)C(=O)c3ccc(S(=O)(=O)N4CCc5ccccc5C4)cc3)sc2c1
IC50 (Bcl-2-related protein A1): > 20 µM (inactive)
IC50 [14]: 4.58 µM (active)
IC50 [15]: 4.49 µM (active)
EC50 [16]: > 100 µM (inactive)
EC50 [17]: > 92.5 µM (inactive)
EC50 (Mu-type opioid receptor): > 92.5 µM (inactive)
EC50 [18]: > 92.5 µM (inactive)
IC50 [19]: 80 µM (inactive)

SMILES: CCNC(=O)NC(=O)C(C)OC(=O)c1c(C)nn(Cc2ccccc2Cl)c1Cl (stereo not drawn)
EC50 [13]: 1.5 µM (active) and 2.5 µM (active)
